Results as given in patent US12302902B2, “Antimicrobial compositions, including antimicrobial hydrogels, effective against mature biofilms” (Cormedix Inc., priority 2017, dated 2025).

What was measured:
Microbes = conditions: cited from earlier work
P. aeruginosa = conditions: cited from earlier work
[1] = tested on: Pseudomonas aeruginosa (PAO1) biofilm; test: Ex vivo biofilm porcine skin explant model, bacterial load after treatment with hydrogel; assay type: cell-based; conditions: 3 day cultured PA01 explants, treated with 1 ml solution, cell count Day 4

Compound: O=S1(=O)CCN(CN2CCS(=O)(=O)NC2)CN1 [Taurolidine, bis(1,1-dioxoperhydro-1,2,4-thiadiazinyl-4)-methane]
- destruction time in vitro (Microbes): 30 min

Compound: NC[C@H]1O[C@H](O[C@H]2[C@H](O)[C@@H](O[C@H]3O[C@H](CO)[C@@H](O)[C@H](N)[C@H]3O)[C@H](N)C[C@@H]2N)[C@H](N)C[C@@H]1O [tobramycin]
- reduction of biofilm cell counts (P. aeruginosa; P. aeruginosa biofilm, tobramycin levels far in excess of the MIC): approximately 2 logs
- decrease in planktonic cells (P. aeruginosa; P. aeruginosa planktonic cells, same dosage): > 8 log

Compound: gentamicin
- PA01 AVG (average CFU/ml of sonicated explant bacterial suspension) [1]: 3.45E+07 CFU/ml
